Results from patent US4077981A, “Certain 1-alkyl-2-dichlorophenyliminopyrrolidines” (Bayer Aktiengesellschaft, priority 1968, dated 1978).

Legend:
[1] = system: Boophilus, Biarra strain; assay: In-vitro test for ovicidal and adulticidal effect on ticks; design: species or system Boophilus microplus; details: for Adulticidal and ovicidal effect: 50% inhibition with the stated concentration of active compound: Table 4, concentration giving 50% inhibition; for Adulticidal and ovicidal effect: 100% inhibition with the stated concentration of active compound: Table 4, concentration giving 100% inhibition
Description: In-vitro test for ovicidal and adulticidal effect on ticks
The ovicidal effect is determined as stated in Example 1.
In addition, the adulticidal effectiveness of the preparation of the given active compound after 24 hours is determined by ascertaining the voluntary movement of limbs and bodies of the immersed adult ticks after stimulation with a fine needle compared with the voluntary movement of limbs and bodies of the untreated adult ticks. The effectiveness is stated in %, 100% meaning that no movements of any kind of the limbs and bodies were any longer detectable, and 0% signifying that the ticks moved limbs and bodies in normal manner.
The results below were obtained in a similar manner to those in accordance with Example 4.

[2] = system: Boophilus microplus, Biarra strain (resistant); assay: In-vitro test for ovicidal effect on ticks (Biarra strain)
Description: In-vitro Test for Ovicidal Effect on Ticks
The emulsion concentrate so obtained is diluted with water to the application concentration desired in each case.
After immersion of, in each case, 10 female specimens of the various strains of ticks, the individual ticks are transferred to plastic dishes, the bottom of each of which is covered with a disc of filter paper.

[3] = Table 1b, concentration giving 100% inhibition
[4] = Table 1b, concentration giving >50% inhibition
[5] = Table 2, concentration giving 100% inhibition
[6] = Table 2, concentration giving >50% inhibition

SMILES	Ovicidal effect: 100% inhibition with the stated concentration of active compound [2, 3] [% by weight]	Ovicidal effect: >50% inhibition with the stated concentration of active compound [2, 4] [% by weight]	Ovicidal effect: 100% inhibition with the stated concentration of active compound [2, 5] [% by weight]	Ovicidal effect: >50% inhibition with the stated concentration of active compound [2, 6] [% by weight]	further results
C=CCN1CCCC1=Nc1ccc(Br)c(Br)c1					Adulticidal and ovicidal effect: 50% inhibition with the stated concentration of active compound [1]: 0.05 % by weight; Adulticidal and ovicidal effect: 100% inhibition with the stated concentration of active compound [1]: 0.1 % by weight
CCCCN1CCCC1=Nc1ccc(F)c(Cl)c1					Adulticidal and ovicidal effect: 50% inhibition with the stated concentration of active compound [1]: 0.03 % by weight; Adulticidal and ovicidal effect: 100% inhibition with the stated concentration of active compound [1]: 0.1 % by weight
CCCN1CCCC1=Nc1ccc(F)c(Cl)c1					Adulticidal and ovicidal effect: 50% inhibition with the stated concentration of active compound [1]: 0.03 % by weight; Adulticidal and ovicidal effect: 100% inhibition with the stated concentration of active compound [1]: 0.1 % by weight
C=CCN1CCCC1=Nc1ccc(F)c(Cl)c1					Adulticidal and ovicidal effect: 50% inhibition with the stated concentration of active compound [1]: 0.08 % by weight; Adulticidal and ovicidal effect: 100% inhibition with the stated concentration of active compound [1]: 0.1 % by weight
CCN1CCCC1=Nc1ccc(F)c(Cl)c1					Adulticidal and ovicidal effect: 50% inhibition with the stated concentration of active compound [1]: 0.1 % by weight; Adulticidal and ovicidal effect: 100% inhibition with the stated concentration of active compound [1]: 0.3 % by weight
CCN1CCCC1=Nc1ccc(Cl)cc1Cl [Compound 21]	0.1	0.01			
CCN1CCCC1=Nc1cc(Cl)c(Cl)cc1Cl [Compound 31]	0.3	0.1			
CCN1C(=Nc2ccc(Cl)c(Cl)c2)CCC1C (stereo not shown) [Compound 51]	0.1	0.03			
CCCN1CCCC1=Nc1ccc(Cl)c(Cl)c1 [Compound 61]	0.03	0.01			
CCN1CCCC1=Nc1ccc(Cl)c(Cl)c1 [Compound 81]	0.3	0.1			
CCCN1CCCC1=Nc1ccc(Cl)cc1Cl [Compound 91]	0.03	0.01			
Cc1cc(Cl)ccc1N=C1CCCN1CC(C)C [Compound 101]	0.1	0.05			
CC(C)CN1CCCC1=Nc1ccc(Cl)c(Cl)c1 [Compound 111]	0.1	0.03			
CC(C)N1CCCC1=Nc1ccc(Cl)c(Cl)c1 [Compound 121]	0.1	0.03			
CN1CCCC1=Nc1cc(Cl)c(Cl)cc1Cl [Compound 131]	0.03	0.01			
Cc1cc(Cl)ccc1N=C1CCCN1C [Compound 141]	0.3	0.1			
CCCCN1CCCC1=Nc1ccc(Cl)cc1C [Compound 151]	0.3	0.1			
CCCCN1CCCC1=Nc1ccc(Cl)cc1Cl [Compound 161]	0.03	0.01			
CC(C)CN1CCCC1=Nc1ccc(Cl)cc1Cl [Compound 171]	0.1	0.03			
CC(C)(C)N1CCCC1=Nc1ccc(Cl)cc1Cl [Compound 181]	0.3	0.1			
CN1CCCC1=Nc1ccc(Cl)c(Cl)c1 [Compound 191]	0.3	0.1			
CC1CCC(=Nc2ccc(Cl)c(Cl)c2)N1C (stereo not shown) [Compound 201]	0.3	0.1			
CC(C)N1CCCC1=Nc1ccc(Cl)cc1Cl [Compound 221]	0.1	0.03			
Cc1cc(Cl)ccc1N=C1CCCN1C(C)(C)C [Compound 231]	0.3	0.1			

SMILES	Ovicidal effect: 100% inhibition with the stated concentration of active compound [2, 3] [% by weight]	Ovicidal effect: >50% inhibition with the stated concentration of active compound [2, 4] [% by weight]	Ovicidal effect: 100% inhibition with the stated concentration of active compound [2, 5] [% by weight]	Ovicidal effect: >50% inhibition with the stated concentration of active compound [2, 6] [% by weight]	further results
CN1CCCC1=Nc1ccc(Br)cc1Br [Compound 251]			0.1	0.03	
CCN1CCCC1=Nc1ccc(Br)cc1Br [Compound 261]			0.1	0.05	
CCCN1CCCC1=Nc1ccc(Br)cc1Br [Compound 271]			0.3	0.2	
C=CCN1CCCC1=Nc1ccc(Br)cc1Br [Compound 281]			0.1	0.03	
CCCCN1CCCC1=Nc1ccc(Br)cc1Br [Compound 291]			0.3	0.1	
CN1CCCC1=Nc1ccc(Br)cc1Cl [Compound 301]			0.1	0.05	
CCN1CCCC1=Nc1ccc(Br)cc1Cl [Compound 311]			0.1	0.08	
CCCN1CCCC1=Nc1ccc(Br)cc1Cl [Compound 321]			0.3	0.1	
CCCCN1CCCC1=Nc1ccc(Br)cc1Cl [Compound 331]			0.3	0.1	
CN1CCCC1=Nc1ccc(Cl)cc1Br [Compound 341]			0.1	0.03	
CCN1CCCC1=Nc1ccc(Cl)cc1Br [Compound 351]			0.1	0.03	
CCCN1CCCC1=Nc1ccc(Cl)cc1Br [Compound 361]			0.1	0.03	
CCCCN1CCCC1=Nc1ccc(Cl)cc1Br [Compound 371]			0.03	0.01	
CN1CCCC1=Nc1ccc(F)cc1Br [Compound 381]			0.3	0.1	
CCCN1CCCC1=Nc1ccc(F)cc1Br [Compound 391]			0.03	0.02	
CCN1CCCC1=Nc1ccc(Br)c(Cl)c1 [Compound 401]			0.1	0.08	
C=CCN1CCCC1=Nc1ccc(Br)c(Cl)c1 [Compound 411]			0.3	0.1	
CCCCN1CCCC1=Nc1ccc(Br)c(Cl)c1 [Compound 421]			0.3	0.2	
C=CCN1CCCC1=Nc1ccc(Br)cc1C [Compound 431]			0.1	0.03	
C=CCN1CCCC1=Nc1ccc(Br)cc1CC [Compound 441]			0.3	0.1	
C=CCN1CCCC1=Nc1ccc(Cl)cc1Br [Compound 451]			0.1	0.01	
CCCCN1CCCC1=Nc1ccc(Br)cc1C [Compound 461]			0.3	0.2	
C=CCN1CCCC1=Nc1ccc(F)c(Br)c1 [Compound 471]			0.1	0.08	
